# Data published in US4485039A, “Synthetic analogues of α-melanotropin” (University Patents, Inc., priority 1982, dated 1984).
# Positions of bridges follow the written chain, without caps; N, C: chain ends. Residues, ends and D or L forms follow the SMILES beside them.
# How the values were obtained:
# [1] = tested on: frog (Rana pipiens) skin melanophores; assay: frog skin bioassay, melanosome dispersion in vitro; format: cell-based; conditions: standard frog skin assay
# Excerpt: The Example 1 compounds were examined for their biological effects on melanosome dispersion in vitro using the standard frog (Rana pipiens) skin bioassay and photo-reflectance methods. See, Hadley, et al., Science, 213, pp. 1025-1027 (1981).
# [2] = cited from earlier work
# [3] = tested on: frog (Rana pipiens) skin melanophores; assay: duration of melanosome dispersion, frog skin bioassay; format: cell-based; conditions: 5×10^-10 M, skins rinsed at 60 minutes
# Protocol: The compounds of Example 1 were examined with respect to the duration of their ability to stimulate melanosome dispersion in vitro using the frog (Rana pipiens) skin bioassay.
# At time zero, 5×10^-10 M of α-MSH was added to one group of frog skins and 5×10^-10 M of the test compounds were individually added to the second and third groups of skins. At time=60 minutes, skins were rinsed and transferred to Ringers solution.
# [4] = tested on: lizard (Anolis carolinensis) skin melanophores; assay: lizard skin bioassay, melanosome dispersion in vitro; format: cell-based
# [5] = tested on: adenylate cyclase in Cloudman S-91 mouse melanoma tumors; conditions: [α-32P]ATP conversion to [32P]cAMP
# Excerpt: ATP conversion to [^32 P]cAMP in Cloudman S-91 mouse melanoma tumors as described in Sawyer, et al., Proc. Nat. Acad. Sci. USA, 77, 5754-5758 (1980). [^32 P]cAMP was isolated, purified and detected according to Salomon, et al., Anal. Biochem., 24, pp. 18-26 (1976).
molecule,measurement,setting,value
"[half-Cys^5, half-Cys^11 ]-α-MSH",enzymatic stability compared with α-MSH (in words),chymotrypsin,enzymatically more stable than α-MSH
same,potency compared with α-MSH (in words),[1],less potent than α-MSH
Ac-Ser^1 -Tyr^2 -Ser^3 -Met^4 -Glu^5 -His^6 -Phe^7 -Arg^8 -Trp^9 -Gly^10 -Lys^11 -Pro^12 -Val^13 -NH2 [α-MSH],time to complete degradation to a biologically inactive compound,chymotrypsin,≤ 5 minutes
same,half-life in serum,[2],less than 2 minutes
same,time until activity completely reversed,[3],less than three
"[Half-Cys^4, half-Cys^10 ]-α-MSH",potency relative to the native hormone,[4],approximately thirty
same,maximal adenylate cyclase activity compared with α-MSH,[5],same maximal adenylate cyclase activity as α-MSH
same,potency relative to the native hormone,[5],approximately three
"CC(=O)N[C@H]1CSSC[C@@H](C(=O)N[C@@H](CCCCN)C(=O)N2CCC[C@H]2C(=O)N[C@H](C(N)=O)C(C)C)NC(=O)[C@H](Cc2c[nH]c3ccccc23)NC(=O)[C@H](CCCNC(=N)N)NC(=O)[C@H](Cc2ccccc2)NC(=O)[C@H](Cc2cnc[nH]2)NC(=O)[C@H](CCC(=O)O)NC1=O [acetyl-[half-Cys^4, half-Cys^10]-α-MSH4-13NH.sbsb.2] (Ac-CEHFRWCKPV-NH2; disulfide 1-7)",potency relative to the native hormone,[4],about 1.6 times
